The values below come from the NIST ThermoML archive (doi:10.1016/j.tca.2016.01.009).

The conditions of this data set: Crystal; visual observation.

The structures appear in SMILES notation. Numbers after ± are expanded uncertainties.

Regarding `OCc1cn(Cc2ccccc2)nn1` [(1-benzyl-1H-1,2,3-triazol-4-yl)methanol], the Normal melting temperature amounted to 78.70 ± 0.48 °C.
